Reference: patent publication US9302999B2, “Substituted triazoles as herbicides” (E. I. DU PONT DE NEMOURS AND COMPANY, priority 2012, dated 2016)

Experiments:
Format in all cases: in vivo
[1] = test system: ducksalad (Heteranthera limosa); assay: Test B flooded paddy: ducksalad; conditions: Flood, applied to paddy water at 2-leaf stage, visually evaluated after 13 to 15 days
In short: (§1)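 Greenhouse assay lasting 13 to 15 days. Treatment was into water flooding pots 3 cm deep, at the 2-leaf stage, with that level sustained afterwards. Scores compare treated with control plants visually, 100 denoting complete control and 0 no effect; a dash marks no test result.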

[2] = test system: pigweed (Amaranthus retroflexus); assay: Test A pre-/postemergence: pigweed
In short: (§2)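 Visual 0–100 injury ratings (0 no effect, 100 complete control) taken about ten days after treatment, relative to untreated controls. Preemergence treatment was a directed soil spray; postemergence plants were 2–10 cm tall at one- to two-leaf stage. Soil: loam/sand blend.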

[3] = test system: foxtail, giant (giant foxtail, Setaria faberii); assay: Test A pre-/postemergence: foxtail, giant
In short: as §2

[4] = test system: crabgrass, large (large crabgrass, Digitaria sanguinalis); assay: Test A pre-/postemergence: crabgrass, large
In short: as §2

corn (Zea mays) = assay: Test A pre-/postemergence: corn
In short: as §2

[5] = test system: velvetleaf (Abutilon theophrasti); assay: Test A pre-/postemergence: velvetleaf
In short: as §2

[6] = test system: barnyardgrass (Echinochloa crus-galli); assay: Test A pre-/postemergence: barnyardgrass
In short: as §2

[7] = test system: wheat (Triticum aestivum); assay: Test A pre-/postemergence: wheat
In short: as §2

[8] = test system: barnyardgrass (Echinochloa crus-galli); assay: Test B flooded paddy: barnyardgrass; conditions: Flood, applied to paddy water at 2-leaf stage, visually evaluated after 13 to 15 days
In short: as §1

rice (Oryza sativa) = assay: Test B flooded paddy: rice; conditions: Flood, applied to paddy water at 2-leaf stage, visually evaluated after 13 to 15 days
In short: as §1

[9] = test system: sedge, umbrella (small-flower umbrella sedge Cyperus difformis); assay: Test B flooded paddy: sedge, umbrella; conditions: Flood, applied to paddy water at 2-leaf stage, visually evaluated after 13 to 15 days
In short: as §1

[10] = test system: morningglory (Ipomoea spp.); assay: Test A pre-/postemergence: morningglory
In short: as §2

[11] = Postemergence, 125 g ai/ha, 0 to 100 scale, 0 is no effect, 100 is complete control
[12] = Postemergence, 500 g ai/ha, 0 to 100 scale, 0 is no effect, 100 is complete control
[13] = Preemergence, 125 g ai/ha, 0 to 100 scale where 0 is no effect and 100 is complete control
[14] = Preemergence, 500 g ai/ha, 0 to 100 scale (0 no effect, 100 complete control)

| Structure (SMILES) | Plant response rating, Pigweed [2, 11] | Pigweed plant response rating [2, 12] | Plant response rating, Pigweed [2, 13] | Plant response rating, Pigweed [2, 14] | Plant response rating, Foxtail, Giant [3, 11] | Foxtail, Giant plant response rating [3, 12] | Plant response rating, Foxtail, Giant [3, 13] | Plant response rating, Foxtail, Giant [3, 14] | Plant response rating, Crabgrass, Large [4, 11] | Crabgrass, Large plant response rating [4, 12] | Plant response rating, Crabgrass, Large [4, 13] | Plant response rating, Crabgrass, Large [4, 14] | Plant response rating, Corn (corn (Zea mays); [11]) | Corn plant response rating (corn (Zea mays); [12]) | Plant response rating, Corn (corn (Zea mays); [13]) | Plant response rating, Corn (corn (Zea mays); [14]) | Plant response rating, Velvetleaf [5, 11] | Velvetleaf plant response rating [5, 12] | Plant response rating, Velvetleaf [5, 13] | Plant response rating, Velvetleaf [5, 14] | further results |
| --- | --- | --- | --- | --- | --- | --- | --- | --- | --- | --- | --- | --- | --- | --- | --- | --- | --- | --- | --- | --- | --- |
| CCOc1nn(-c2ccc(F)cc2F)nc1Cc1ccnc(C(F)(F)F)c1 [Compound 190] | 100 | 100 | 100 | 100 | 100 | 100 | 100 | 100 | 100 | 100 | 100 | 100 | 60 | 90 | 30 | 90 | 100 | 100 | 40 | 100 | Plant response rating, Ducksalad (0 to 100 scale, 0 is no effect, 100 is complete control) ([1]; 125 g ai/ha): 70; Plant response rating, Barnyardgrass [6, 11]: 100; Barnyardgrass plant response rating [6, 12]: 100; Plant response rating, Barnyardgrass [6, 13]: 100; Plant response rating, Barnyardgrass [6, 14]: 100; Plant response rating, Wheat [7, 11]: 70; Wheat plant response rating [7, 12]: 100; Plant response rating, Wheat [7, 13]: 60; Plant response rating, Wheat [7, 14]: 80; Plant response rating, Barnyardgrass (0 to 100 scale, 0 is no effect, 100 is complete control) ([8]; 125 g ai/ha): 70; Plant response rating, Rice (0 to 100 scale, 0 is no effect, 100 is complete control) (rice (Oryza sativa); 125 g ai/ha): 50; Plant response rating, Sedge, Umbrella (0 to 100 scale, 0 is no effect, 100 is complete control) ([9]; 125 g ai/ha): 95; Plant response rating, Morningglory [10, 11]: 100; Morningglory plant response rating [10, 12]: 100; Plant response rating, Morningglory [10, 13]: 80; Plant response rating, Morningglory [10, 14]: 80 |
| CCCOc1nn(-c2ccc(C(F)(F)F)cc2)nc1Cc1ccnc(C(F)(F)F)c1 [Compound 191] | 100 | 100 | 100 | 100 | 90 | 100 | 100 | 100 | 90 | 100 | 100 | 100 | 30 | 80 | 20 | 60 | 80 | 100 | 30 | 80 | Plant response rating, Ducksalad (0 to 100 scale, 0 is no effect, 100 is complete control) ([1]; 125 g ai/ha): 20; Plant response rating, Barnyardgrass [6, 11]: 60; Barnyardgrass plant response rating [6, 12]: 100; Plant response rating, Barnyardgrass [6, 13]: 90; Plant response rating, Barnyardgrass [6, 14]: 100; Plant response rating, Wheat [7, 11]: 70; Wheat plant response rating [7, 12]: 80; Plant response rating, Wheat [7, 13]: 40; Plant response rating, Wheat [7, 14]: 70; Plant response rating, Barnyardgrass (0 to 100 scale, 0 is no effect, 100 is complete control) ([8]; 125 g ai/ha): 50; Plant response rating, Rice (0 to 100 scale, 0 is no effect, 100 is complete control) (rice (Oryza sativa); 125 g ai/ha): 50; Plant response rating, Sedge, Umbrella (0 to 100 scale, 0 is no effect, 100 is complete control) ([9]; 125 g ai/ha): 50; Plant response rating, Morningglory [10, 11]: 100; Morningglory plant response rating [10, 12]: 100; Plant response rating, Morningglory [10, 13]: 20; Plant response rating, Morningglory [10, 14]: 30 |
| CC(C)Oc1nn(-c2ccc(C(F)(F)F)cc2)nc1Cc1ccnc(C(F)(F)F)c1 [Compound 192] | 40 | 100 | 10 | 40 | 10 | 20 | 0 | 80 | 10 | 30 | 0 | 70 | 10 | 30 | 0 | 0 | 20 | 100 | 0 | 0 | Plant response rating, Ducksalad (0 to 100 scale, 0 is no effect, 100 is complete control) ([1]; 250 g ai/ha): 0; Plant response rating, Barnyardgrass [6, 11]: 0; Barnyardgrass plant response rating [6, 12]: 20; Plant response rating, Barnyardgrass [6, 13]: 0; Plant response rating, Barnyardgrass [6, 14]: 0; Plant response rating, Wheat [7, 11]: 0; Wheat plant response rating [7, 12]: 10; Plant response rating, Wheat [7, 13]: 0; Plant response rating, Wheat [7, 14]: 0; Plant response rating, Barnyardgrass (0 to 100 scale, 0 is no effect, 100 is complete control) ([8]; 250 g ai/ha): 0; Plant response rating, Rice (0 to 100 scale, 0 is no effect, 100 is complete control) (rice (Oryza sativa); 250 g ai/ha): 0; Plant response rating, Sedge, Umbrella (0 to 100 scale, 0 is no effect, 100 is complete control) ([9]; 250 g ai/ha): 0; Plant response rating, Morningglory [10, 11]: 30; Morningglory plant response rating [10, 12]: 70; Plant response rating, Morningglory [10, 13]: 0; Plant response rating, Morningglory [10, 14]: 10 |
| CC(C)COc1nn(-c2ccc(C(F)(F)F)cc2)nc1Cc1ccnc(C(F)(F)F)c1 [Compound 193] | 70 | 100 | 0 | 20 | 10 | 20 | 10 | 70 | 10 | 30 | 0 | 40 | 10 | 30 | 0 | 0 | 30 | 70 | 0 | 0 | Plant response rating, Ducksalad (0 to 100 scale, 0 is no effect, 100 is complete control) ([1]; 125 g ai/ha): 0; Plant response rating, Barnyardgrass [6, 11]: 10; Barnyardgrass plant response rating [6, 12]: 20; Plant response rating, Barnyardgrass [6, 13]: 0; Plant response rating, Barnyardgrass [6, 14]: 0; Plant response rating, Wheat [7, 11]: 0; Wheat plant response rating [7, 12]: 10; Plant response rating, Wheat [7, 13]: 0; Plant response rating, Wheat [7, 14]: 0; Plant response rating, Barnyardgrass (0 to 100 scale, 0 is no effect, 100 is complete control) ([8]; 125 g ai/ha): 0; Plant response rating, Rice (0 to 100 scale, 0 is no effect, 100 is complete control) (rice (Oryza sativa); 125 g ai/ha): 0; Plant response rating, Sedge, Umbrella (0 to 100 scale, 0 is no effect, 100 is complete control) ([9]; 125 g ai/ha): 0; Plant response rating, Morningglory [10, 11]: 10; Morningglory plant response rating [10, 12]: 40; Plant response rating, Morningglory [10, 13]: 0; Plant response rating, Morningglory [10, 14]: 0 |
| CCCCOc1nn(-c2ccc(C(F)(F)F)cc2)nc1Cc1ccnc(C(F)(F)F)c1 [Compound 194] | 40 | 100 | 0 | 10 | 10 | 30 | 0 | 30 | 10 | 20 | 0 | 10 | 0 | 20 | 0 | 0 | 30 | 50 | 0 | 0 | Plant response rating, Ducksalad (0 to 100 scale, 0 is no effect, 100 is complete control) ([1]; 125 g ai/ha): 0; Plant response rating, Barnyardgrass [6, 11]: 10; Barnyardgrass plant response rating [6, 12]: 20; Plant response rating, Barnyardgrass [6, 13]: 0; Plant response rating, Barnyardgrass [6, 14]: 0; Plant response rating, Wheat [7, 11]: 0; Wheat plant response rating [7, 12]: 20; Plant response rating, Wheat [7, 13]: 0; Plant response rating, Wheat [7, 14]: 0; Plant response rating, Barnyardgrass (0 to 100 scale, 0 is no effect, 100 is complete control) ([8]; 125 g ai/ha): 0; Plant response rating, Rice (0 to 100 scale, 0 is no effect, 100 is complete control) (rice (Oryza sativa); 125 g ai/ha): 0; Plant response rating, Sedge, Umbrella (0 to 100 scale, 0 is no effect, 100 is complete control) ([9]; 125 g ai/ha): 0; Plant response rating, Morningglory [10, 11]: 10; Morningglory plant response rating [10, 12]: 30; Plant response rating, Morningglory [10, 13]: 0; Plant response rating, Morningglory [10, 14]: 0 |
